Test system: melanin pigment deposition in skin after sunlight exposure
Experiment: Whitening effect testing (hypochromic effect on sun-exposed upper arm skin of testees)
Assay type: in vivo, human
Settings: applied twice daily for 4 weeks after sunlight exposure, 8 persons per group
Experimental: (§1) 40 testees were exposed to summer sunlight for 4 hours (2 hours a day for 2 days) and the skin of an inner lateral part of their upper arm was used as the subject of the test. Beginning after 5 days from the day they were exposed to the sunlight, each sample was applied to this skin once in the morning and once in the afternoon for 4 weeks. The panel was divided into 5 groups with 8 persons in each group. Testing was conducted using the following formulations.
The hypochromic effect after the application was evaluated based on the criteria below.
Samples were prepared with the blend compositions described in the aforementioned test method, and the drugs listed in Table 2 were used to compare the whitening effect.
as §1, with “From” for “from”
Samples were prepared with the blend compositions described in the aforementioned test method, and the drugs listed in Table 4 were used to compare the whitening effect.
Samples were prepared with the blend compositions described in the aforementioned test method, and the drugs listed in Table 6 were used to compare the whitening effect.
as §1, with “groups 5” for “groups”
Samples were prepared with the blend compositions described in the aforementioned test Method, and the drugs listed in Table 8 were used to compare the whitening effect.

Structure (SMILES): Oc1ccc(O)cc1 [Hydroquinone]
- Effect (hypochromic effect) (Table 2, Blend Ratio 1.0 wt % in lotion): Δ (Δ: Very effective or effective on 30% to less than 50% testees)
- Effect (hypochromic effect) (Table 4, Blend Ratio 1.0 wt % in lotion): Δ (Δ: Very effective or effective on 30% to less than 50% testees)
- Effect (hypochromic effect) (Table 6, Blend Ratio 1.0 % in lotion): Δ (Δ: Very effective or effective on 30% to less than 50% testees)
- Effect (hypochromic effect) (Table 8, Blend Ratio (5) 1.0 in lotion): Δ (Δ: Very effective or effective on 30% to less than 50% testees)

— patent US5631002A, “Liniment for melanin inhibitors” (Shiseido Co., Ltd., priority 1994, dated 1997)
